Our source for the relative viability values is the supplement of paper PMC10307832.

Holding throughout (experiment): relative viability (nuclei count vs DMSO), 5 days (fraction); higher = more cells survive
Compound in the test “IU1-47 + Trametinib”: CC1=CC(=C(N1C2=CC=C(C=C2)Cl)C)C(=O)CN3CCCCC3 [IU1-47] + CC(=O)Nc1cccc(-n2c(=O)n(C3CC3)c(=O)c3c(Nc4ccc(I)cc4F)n(C)c(=O)c(C)c32)c1 [Trametinib] (partner 0.02 µM)
The gist of the method:
(§1)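 The day after seeding in 1536-well plates, lung cancer cell lines were treated by pin tool with a single drug, or with a fixed anchor-drug dose together with five library-drug doses (not always all listed) in √10 steps. After 5 days, a combined fix-and-stain solution (final 0.05% Triton X-100, 1% formaldehyde, 1 ug/ml Hoechst) was added. Nuclei counted on 4× images gave relative viability as treated counts over vehicle counts, reported as the median of duplicate plates.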

Compound in the test “IU1-47 + Palbociclib”: CC1=CC(=C(N1C2=CC=C(C=C2)Cl)C)C(=O)CN3CCCCC3 [IU1-47] + CC(=O)c1c(C)c2cnc(Nc3ccc(N4CCNCC4)cn3)nc2n(C2CCCC2)c1=O [Palbociclib] (partner 0.5 µM)
The gist of the method:
as §1

Compound in the test “IU1-47 + Navitoclax”: CC1=CC(=C(N1C2=CC=C(C=C2)Cl)C)C(=O)CN3CCCCC3 [IU1-47] + CC1(C)CCC(c2ccc(Cl)cc2)=C(CN2CCN(c3ccc(C(=O)NS(=O)(=O)c4ccc(N[C@H](CCN5CCOCC5)CSc5ccccc5)c(S(=O)(=O)C(F)(F)F)c4)cc3)CC2)C1 [Navitoclax] (partner 0.5 µM)
The gist of the method: as §1

Compound in the test “IU1-47 + Linsitinib”: CC1=CC(=C(N1C2=CC=C(C=C2)Cl)C)C(=O)CN3CCCCC3 [IU1-47] + C[C@]1(O)C[C@@H](c2nc(-c3ccc4ccc(-c5ccccc5)nc4c3)c3c(N)nccn32)C1 [Linsitinib] (partner 1 µM)
The essentials:
as §1

With PC-14, the relative viability with IU1-47 + Trametinib (first compound 0.08 µM) was 0.95; with IU1-47 + Trametinib (first compound 0.253 µM) it was 0.771; in the test with IU1-47 + Trametinib (first compound 0.8 µM), 0.91; with IU1-47 + Trametinib (first compound 2.53 µM) it was 1.14; in the test with IU1-47 + Trametinib (first compound 8 µM), 0.723; with IU1-47 + Palbociclib (first compound 0.08 µM), 0.547. In addition, the relative viability is 0.69 with IU1-47 + Palbociclib (first compound 0.253 µM); 0.635 in the test with IU1-47 + Palbociclib (first compound 0.8 µM); 0.675 in the test with IU1-47 + Palbociclib (first compound 2.53 µM); 0.419 in the test with IU1-47 + Palbociclib (first compound 8 µM); 1.22 in the test with IU1-47 + Navitoclax (first compound 0.08 µM); 1.14 in the test with IU1-47 + Navitoclax (first compound 0.253 µM). For the same cell line, the relative viability with IU1-47 + Navitoclax (first compound 0.8 µM) turned out to be 1.16; with IU1-47 + Navitoclax (first compound 2.53 µM), 1.06; in the test with IU1-47 + Navitoclax (first compound 8 µM), 0.932; with IU1-47 + Linsitinib (first compound 0.08 µM) it was 1.02; in the test with IU1-47 + Linsitinib (first compound 0.253 µM), 1.04; with IU1-47 + Linsitinib (first compound 0.8 µM), 1.01. For the same cell line, the relative viability amounted to 1.05 with IU1-47 + Linsitinib (first compound 2.53 µM) and 0.94 with IU1-47 + Linsitinib (first compound 8 µM).

With RERF-LC-KJ, the relative viability turned out to be 0.845 with IU1-47 + Trametinib (first compound 0.08 µM); 0.883 in the test with IU1-47 + Trametinib (first compound 0.253 µM); 0.998 with IU1-47 + Trametinib (first compound 0.8 µM); 1.1 with IU1-47 + Trametinib (first compound 2.53 µM); 0.799 in the test with IU1-47 + Trametinib (first compound 8 µM); 1.32 with IU1-47 + Palbociclib (first compound 0.08 µM). Besides, the relative viability with IU1-47 + Palbociclib (first compound 0.253 µM) turned out to be 1.18; with IU1-47 + Palbociclib (first compound 0.8 µM) it was 1.04; with IU1-47 + Palbociclib (first compound 2.53 µM) it was 1.16; in the test with IU1-47 + Palbociclib (first compound 8 µM), 1.07; with IU1-47 + Navitoclax (first compound 0.08 µM), 0.939; with IU1-47 + Navitoclax (first compound 0.253 µM), 0.812. Moreover, the relative viability came to 0.839 with IU1-47 + Navitoclax (first compound 0.8 µM); 1.14 in the test with IU1-47 + Navitoclax (first compound 2.53 µM); 0.879 with IU1-47 + Navitoclax (first compound 8 µM); 0.889 with IU1-47 + Linsitinib (first compound 0.08 µM); 0.865 in the test with IU1-47 + Linsitinib (first compound 0.253 µM); 0.872 in the test with IU1-47 + Linsitinib (first compound 0.8 µM). Further, the relative viability came to 0.957 with IU1-47 + Linsitinib (first compound 2.53 µM) and 0.893 with IU1-47 + Linsitinib (first compound 8 µM).

For SK-LU-1, the relative viability with IU1-47 + Trametinib (first compound 0.08 µM) stood at 0.52; with IU1-47 + Trametinib (first compound 0.253 µM) it was 0.542; with IU1-47 + Trametinib (first compound 0.8 µM), 0.543; in the test with IU1-47 + Trametinib (first compound 2.53 µM), 0.491; in the test with IU1-47 + Trametinib (first compound 8 µM), 0.395; with IU1-47 + Palbociclib (first compound 0.08 µM) it was 0.387. Also, the relative viability with IU1-47 + Palbociclib (first compound 0.253 µM) worked out at 0.411; with IU1-47 + Palbociclib (first compound 0.8 µM), 0.445; with IU1-47 + Palbociclib (first compound 2.53 µM), 0.4; in the test with IU1-47 + Palbociclib (first compound 8 µM), 0.378; in the test with IU1-47 + Navitoclax (first compound 0.08 µM) it was 0.853; with IU1-47 + Navitoclax (first compound 0.253 µM), 0.855. The relative viability with IU1-47 + Navitoclax (first compound 0.8 µM) amounted to 0.819; in the test with IU1-47 + Navitoclax (first compound 2.53 µM) it was 0.839; with IU1-47 + Navitoclax (first compound 8 µM), 0.847; with IU1-47 + Linsitinib (first compound 0.08 µM) it was 1.16; in the test with IU1-47 + Linsitinib (first compound 0.253 µM), 1.08; with IU1-47 + Linsitinib (first compound 0.8 µM), 1.32. The relative viability with IU1-47 + Linsitinib (first compound 2.53 µM) is 1.16; with IU1-47 + Linsitinib (first compound 8 µM) it was 1.17.

For SK-MES-1, the relative viability was 0.585 with IU1-47 + Trametinib (first compound 0.08 µM); 0.606 in the test with IU1-47 + Trametinib (first compound 0.253 µM); 0.567 with IU1-47 + Trametinib (first compound 0.8 µM); 0.629 with IU1-47 + Trametinib (first compound 2.53 µM); 0.584 with IU1-47 + Trametinib (first compound 8 µM); 0.282 with IU1-47 + Palbociclib (first compound 0.08 µM). For the same cell line, the relative viability with IU1-47 + Palbociclib (first compound 0.253 µM) was determined as 0.332; with IU1-47 + Palbociclib (first compound 0.8 µM), 0.292; in the test with IU1-47 + Palbociclib (first compound 2.53 µM), 0.34; in the test with IU1-47 + Palbociclib (first compound 8 µM), 0.273; with IU1-47 + Navitoclax (first compound 0.08 µM), 1.21; in the test with IU1-47 + Navitoclax (first compound 0.253 µM), 1.34. Besides, the relative viability worked out at 1.27 in the test with IU1-47 + Navitoclax (first compound 0.8 µM); 1.29 with IU1-47 + Navitoclax (first compound 2.53 µM); 1.17 with IU1-47 + Navitoclax (first compound 8 µM); 1.13 in the test with IU1-47 + Linsitinib (first compound 0.08 µM); 1.31 with IU1-47 + Linsitinib (first compound 0.253 µM); 1.12 in the test with IU1-47 + Linsitinib (first compound 0.8 µM). The relative viability came out at 1.01 with IU1-47 + Linsitinib (first compound 2.53 µM) and 1.11 with IU1-47 + Linsitinib (first compound 8 µM).

In the case of SW 1573, the relative viability in the test with IU1-47 + Trametinib (first compound 0.08 µM) stood at 0.656; in the test with IU1-47 + Trametinib (first compound 0.253 µM) it was 0.59; with IU1-47 + Trametinib (first compound 0.8 µM) it was 0.683; with IU1-47 + Trametinib (first compound 2.53 µM), 0.721; in the test with IU1-47 + Trametinib (first compound 8 µM) it was 0.489; with IU1-47 + Palbociclib (first compound 0.08 µM), 0.357. Also, the relative viability with IU1-47 + Palbociclib (first compound 0.253 µM) stood at 0.385; with IU1-47 + Palbociclib (first compound 0.8 µM), 0.379; with IU1-47 + Palbociclib (first compound 2.53 µM), 0.509; in the test with IU1-47 + Palbociclib (first compound 8 µM), 0.31; with IU1-47 + Navitoclax (first compound 0.08 µM) it was 1.03; in the test with IU1-47 + Navitoclax (first compound 0.253 µM) it was 1.14. Further, the relative viability stood at 1.04 with IU1-47 + Navitoclax (first compound 0.8 µM); 0.893 in the test with IU1-47 + Navitoclax (first compound 2.53 µM); 1.09 with IU1-47 + Navitoclax (first compound 8 µM); 0.942 with IU1-47 + Linsitinib (first compound 0.08 µM); 0.674 in the test with IU1-47 + Linsitinib (first compound 0.253 µM); 0.694 with IU1-47 + Linsitinib (first compound 0.8 µM). Further, the figures for the relative viability with IU1-47 + Linsitinib (first compound 2.53 µM) and with IU1-47 + Linsitinib (first compound 8 µM) were 0.746 and 0.843, respectively.

For the cell line UMC-11, the relative viability in the test with IU1-47 + Trametinib (first compound 0.08 µM) stood at 0.681; in the test with IU1-47 + Trametinib (first compound 0.253 µM), 0.681; in the test with IU1-47 + Trametinib (first compound 0.8 µM), 0.748; in the test with IU1-47 + Trametinib (first compound 2.53 µM), 0.741; with IU1-47 + Trametinib (first compound 8 µM) it was 0.664; in the test with IU1-47 + Palbociclib (first compound 0.08 µM), 0.353. Also, the relative viability was 0.339 with IU1-47 + Palbociclib (first compound 0.253 µM); 0.333 with IU1-47 + Palbociclib (first compound 0.8 µM); 0.322 in the test with IU1-47 + Palbociclib (first compound 2.53 µM); 0.351 with IU1-47 + Palbociclib (first compound 8 µM); 0.297 with IU1-47 + Navitoclax (first compound 0.08 µM); 0.315 with IU1-47 + Navitoclax (first compound 0.253 µM). Further, the relative viability with IU1-47 + Navitoclax (first compound 0.8 µM) came out at 0.329; with IU1-47 + Navitoclax (first compound 2.53 µM) it was 0.349; with IU1-47 + Navitoclax (first compound 8 µM), 0.313; with IU1-47 + Linsitinib (first compound 0.08 µM), 0.996; with IU1-47 + Linsitinib (first compound 0.253 µM) it was 0.978; in the test with IU1-47 + Linsitinib (first compound 0.8 µM) it was 1.12. The relative viability amounted to 1.07 with IU1-47 + Linsitinib (first compound 2.53 µM) and 0.952 in the test with IU1-47 + Linsitinib (first compound 8 µM).
